Assay results as given in US12077503B2, “Substituted cyclic amides and their use as herbicides” (FMC CORPORATION, priority 2015, dated 2024).

How the values were obtained:
Assay type in all cases: in vivo
Kochia (Kochia scoparia) [1] = assay: Test A postemergence
Description: (§1) Seeds of plant species selected from barnyardgrass (Echinochloa crus-galli), Kochia (Kochia scoparia), ragweed (common ragweed, Ambrosia elatior), ryegrass, Italian (Italian ryegrass, Lolium multiflorum), crabgrass, large (Digitaria sanguinalis), giant foxtail (Setaria faberii), green foxtail (Setaria viridis), morningglory (Ipomoea spp.), pigweed (Amaranthus retroflexus), velvetleaf (Abutilon theophrasti), wheat (Triticum aestivum), and corn (Zea mays) were planted into a blend of loam soil and sand and treated preemergence with a directed soil spray using test chemicals formulated in anon-phytotoxic solvent mixture which included a surfactant.
(§2) At the same time, plants selected from these crop and weed species and also blackgrass (Alopecurus myosuroides), and Galium (catchweed bedstraw, Galium aparine) were planted in pots containing the same blend of loam soil and sand and treated with postemergence applications of test chemicals formulated in the same manner. Plants ranged in height from 2 to 10 cm and were in the one- to two-leaf stage for the postemergence treatment. Treated plants and untreated controls were maintained in a greenhouse for approximately 10 d, after which time all treated plants were compared to untreated controls and visually evaluated for injury. Plant response ratings, summarized in Table A, are based on a 0 to 100 scale where 0 is no effect and 100 is complete control. A dash (-) response means no test result.

[2] = tested on: ryegrass, Italian (Italian ryegrass, Lolium multiflorum); assay: Test A postemergence
Description: as §1, §2

corn (Zea mays) = assay: Test A postemergence
Description: as §1, §2

[3] = tested on: Galium (catchweed bedstraw, Galium aparine); assay: Test A postemergence
Description: as §1, §2

[4] = tested on: blackgrass (Alopecurus myosuroides); assay: Test A postemergence
Description: as §1, §2

[5] = tested on: giant foxtail (Setaria faberii); assay: Test A postemergence
Description: as §1, §2

[6] = tested on: ragweed (common ragweed, Ambrosia elatior); assay: Test A postemergence
Description: as §1, §2

[7] = tested on: wheat (Triticum aestivum); assay: Test A postemergence
Description: as §1, §2

[8] = tested on: pigweed (Amaranthus retroflexus); assay: Test A postemergence
Description: as §1, §2

[9] = tested on: barnyardgrass (Echinochloa crus-galli); assay: Test A postemergence
Description: as §1, §2

Kochia (Kochia scoparia) [10] = assay: Test A preemergence
Description: as §1, §2

[11] = tested on: ryegrass, Italian (Italian ryegrass, Lolium multiflorum); assay: Test A preemergence
Description: as §1, §2

[12] = tested on: giant foxtail (Setaria faberii); assay: Test A preemergence
Description: as §1, §2

[13] = tested on: ragweed (common ragweed, Ambrosia elatior); assay: Test A preemergence
Description: as §1, §2

[14] = tested on: pigweed (Amaranthus retroflexus); assay: Test A preemergence
Description: as §1, §2

[15] = tested on: barnyardgrass (Echinochloa crus-galli); assay: Test A preemergence
Description: as §1, §2

[16] = 125 g ai/ha, postemergence, visual rating after approx. 10 d, 0 to 100 scale (0 no effect, 100 complete control)
[17] = Postemergence, 500 g ai/ha, 0 to 100 scale where 0 is no effect and 100 is complete control
[18] = 125 g ai/ha, Preemergence, visual injury after approximately 10 d, 0 to 100 scale where 0 is no effect and 100 is complete control
[19] = Preemergence, 500 g ai/ha, visual injury approx. 10 d

Cc1cc(F)ccc1NC(=O)C1C(=O)N(C)CC1c1cccc(C(F)(F)F)c1 (stereo not drawn) [Compound 575]
0: Plant response rating, Kochia (Kochia (Kochia scoparia) [1]; [16]) | Plant response rating, Ragweed [6, 16] | Plant response rating, Ragweed [6, 17] | Plant response rating, Pigweed [8, 16] | Plant response rating, Kochia (Kochia (Kochia scoparia) [10]; [18]) | Plant response rating, Ragweed [13, 18] | Ragweed plant response rating (0 to 100 scale, 0 is no effect, 100 is complete control) [13, 19] | Plant response rating, Pigweed [14, 18]
60: Plant response rating, Ryegrass, Italian [2, 16] | Plant response rating, Ryegrass, Italian [11, 18]
20: Plant response rating, Kochia (Kochia (Kochia scoparia) [1]; [17]) | Plant response rating, Pigweed [8, 17]
80: Plant response rating, Corn (corn (Zea mays); [17]) | Plant response rating, Blackgrass [4, 17] | Ryegrass, Italian plant response rating (0 to 100 scale, 0 is no effect, 100 is complete control) [11, 19]
50: Plant response rating, Galium [3, 16]
100: Foxtail, Giant plant response rating (0 to 100 scale, 0 is no effect, 100 is complete control) [12, 19] | Barnyardgrass plant response rating (0 to 100 scale, 0 is no effect, 100 is complete control) [15, 19]
70: Plant response rating, Ryegrass, Italian [2, 17] | Plant response rating, Corn (corn (Zea mays); [16]) | Plant response rating, Galium [3, 17] | Plant response rating, Blackgrass [4, 16] | Plant response rating, Wheat [7, 17] | Kochia plant response rating (0 to 100 scale, 0 is no effect, 100 is complete control) (Kochia (Kochia scoparia) [10]; [19])
40: Plant response rating, Wheat [7, 16] | Pigweed plant response rating (0 to 100 scale, 0 is no effect, 100 is complete control) [14, 19]
90: Plant response rating, Foxtail, Giant [5, 16] | Plant response rating, Foxtail, Giant [5, 17] | Plant response rating, Barnyardgrass [9, 16] | Plant response rating, Barnyardgrass [9, 17] | Plant response rating, Foxtail, Giant [12, 18] | Plant response rating, Barnyardgrass [15, 18]

O=C1NC[C@H](c2ccc3sccc3c2)[C@H]1C(=O)Nc1cccc(F)c1F [Compound 1128]
70%: pest or weed control at 500 g/ha (Kochia (Kochia scoparia) [1]; Bassia scoparia, post-emergence, 240 h, 500 g ai/ha, postemergence, 0 to 100 scale, 0 is no effect, 100 is complete control, read-out: Kochia plant response rating) | pest or weed control at 500 g/ha ([3]; Galium, post-emergence, 240 h, 500 g ai/ha, postemergence, 0 to 100 scale, 0 is no effect, 100 is complete control, read-out: Galium plant response rating)
40%: pest or weed control at 500 g/ha ([11]; Lolium multiflorum, pre-emergence, 240 h, 500 g ai/ha, preemergence, 0 to 100 scale where 0 is no effect and 100 is complete control, read-out: Ryegrass, Italian plant response rating)
90%: pest or weed control at 500 g/ha ([5]; Setaria faberi, post-emergence, 240 h, 500 g ai/ha, postemergence, 0 to 100 scale, 0 is no effect, 100 is complete control, read-out: Foxtail, Giant plant response rating) | pest or weed control at 500 g/ha ([9]; Echinochloa crus-galli, post-emergence, 240 h, 500 g ai/ha, postemergence, 0 to 100 scale, 0 is no effect, 100 is complete control, read-out: Barnyardgrass plant response rating) | pest or weed control at 500 g/ha ([12]; Setaria faberi, pre-emergence, 240 h, 500 g ai/ha, preemergence, 0 to 100 scale where 0 is no effect and 100 is complete control, read-out: Foxtail, Giant plant response rating) | pest or weed control at 500 g/ha ([15]; Echinochloa crus-galli, pre-emergence, 240 h, 500 g ai/ha, preemergence, 0 to 100 scale where 0 is no effect and 100 is complete control, read-out: Barnyardgrass plant response rating)
30%: pest or weed control at 500 g/ha ([2]; Lolium multiflorum, post-emergence, 240 h, 500 g ai/ha, postemergence, 0 to 100 scale, 0 is no effect, 100 is complete control, read-out: Ryegrass, Italian plant response rating)
0%: plant injury at 500 g/ha ([7]; Triticum aestivum, post-emergence, 240 h, 500 g ai/ha, postemergence, 0 to 100 scale, 0 is no effect, 100 is complete control, read-out: Wheat plant response rating) | pest or weed control at 500 g/ha ([8]; Amaranthus retroflexus, post-emergence, 240 h, 500 g ai/ha, postemergence, 0 to 100 scale, 0 is no effect, 100 is complete control, read-out: Pigweed plant response rating) | pest or weed control at 500 g/ha ([14]; Amaranthus retroflexus, pre-emergence, 240 h, 500 g ai/ha, preemergence, 0 to 100 scale where 0 is no effect and 100 is complete control, read-out: Pigweed plant response rating)
80%: pest or weed control at 500 g/ha (Kochia (Kochia scoparia) [10]; Bassia scoparia, pre-emergence, 240 h, 500 g ai/ha, preemergence, 0 to 100 scale where 0 is no effect and 100 is complete control, read-out: Kochia plant response rating)
50%: plant injury at 500 g/ha (corn (Zea mays); Zea mays, post-emergence, 240 h, 500 g ai/ha, postemergence, 0 to 100 scale, 0 is no effect, 100 is complete control, read-out: Corn plant response rating) | pest or weed control at 500 g/ha ([4]; Alopecurus myosuroides, post-emergence, 240 h, 500 g ai/ha, postemergence, 0 to 100 scale, 0 is no effect, 100 is complete control, read-out: Blackgrass plant response rating) | pest or weed control at 500 g/ha ([6]; Ambrosia artemisiifolia, post-emergence, 240 h, 500 g ai/ha, postemergence, 0 to 100 scale, 0 is no effect, 100 is complete control, read-out: Ragweed plant response rating) | pest or weed control at 500 g/ha ([13]; Ambrosia artemisiifolia, pre-emergence, 240 h, 500 g ai/ha, preemergence, 0 to 100 scale where 0 is no effect and 100 is complete control, read-out: Ragweed plant response rating)
